Measurements published in ChEMBL document CHEMBL3774345, “Synthesis of new diarylamides with pyrimidinyl pyridine scaffold and evaluation of their anti-proliferative effect on cancer cell lines” (Bioorg Med Chem Lett, 2016).

Columns and labels:
Type in all cases: functional
[1] = Cytotoxicity against human PC3 cells assessed as cell growth at 10^-8 M after 24 hrs by SRB assay; details: PC-3, 24 h, read-out: Activity
[2] = Cytotoxicity against human SW620 cells assessed as cell growth at 10^-7 M after 24 hrs by SRB assay; details: SW-620, 24 h, read-out: Activity
[3] = test system: NCI-H460; assay: Cytotoxicity against human NCI-H460 cells assessed as cell growth at 10 uM after 24 hrs by SRB assay; details: NCI-H460, 24 h, read-out: Activity
[4] = Cytotoxicity against human HCT15 cells assessed as cell growth at 10 uM after 24 hrs by SRB assay; details: HCT-15, 24 h, read-out: Activity
[5] = Cytotoxicity against human SW620 cells assessed as cell growth at 10 uM after 24 hrs by SRB assay; details: SW-620, 24 h, read-out: Activity
[6] = Cytotoxicity against human SF539 cells assessed as cell growth at 10 uM after 24 hrs by SRB assay; details: SF-539, 24 h, read-out: Activity
[7] = Cytotoxicity against human SNB75 cells assessed as cell growth at 10 uM after 24 hrs by SRB assay; details: SNB-75, 24 h, read-out: Activity
[8] = Cytotoxicity against human LOXIMVI cells assessed as cell growth at 10 uM after 24 hrs by SRB assay; details: LOX IMVI, read-out: Activity
[9] = test system: SK-MEL-2; assay: Cytotoxicity against human SK-MEL-2 cells assessed as cell growth at 10 uM after 24 hrs by SRB assay; details: SK-MEL-2, 24 h, read-out: Activity
[10] = test system: SK-MEL-28; assay: Cytotoxicity against human SK-MEL-28 cells assessed as cell growth at 10 uM after 24 hrs by SRB assay; details: SK-MEL-28, 24 h, read-out: Activity
[11] = test system: SK-MEL-5; assay: Cytotoxicity against human SK-MEL-5 cells assessed as cell growth at 10 uM after 24 hrs by SRB assay; details: SK-MEL-5, 24 h, read-out: Activity
[12] = Cytotoxicity against human UACC257 cells assessed as cell growth at 10 uM after 24 hrs by SRB assay; details: UACC-257, 24 h, read-out: Activity
[13] = Cytotoxicity against human UACC62 cells assessed as cell growth at 10 uM after 24 hrs by SRB assay; details: UACC-62, 24 h, read-out: Activity
[14] = test system: ACHN; assay: Cytotoxicity against human ACHN cells assessed as cell growth at 10 uM after 24 hrs by SRB assay; details: read-out: Activity
[15] = Cytotoxicity against human UO31 cells assessed as cell growth at 10 uM after 24 hrs by SRB assay; details: UO-31, 24 h, read-out: Activity
[16] = Cytotoxicity against human Hs 578T cells assessed as cell growth at 10 uM after 24 hrs by SRB assay; details: read-out: Activity
[17] = test system: MDA-MB-468; assay: Cytotoxicity against human MDA-MB-468 cells assessed as cell growth at 10 uM after 24 hrs by SRB assay; details: MDA-MB-468, 24 h, read-out: Activity
[18] = Cytotoxicity against human SF268 cells assessed as cell growth at 10^-4 M after 24 hrs by SRB assay; details: SF-268, 24 h, read-out: Activity
[19] = Cytotoxicity against human HL-60(TB) cells assessed as cell growth at 10 uM after 24 hrs by SRB assay; details: HL-60, 24 h, read-out: Activity
[20] = Cytotoxicity against human MOLT4 cells assessed as cell growth at 10 uM after 24 hrs by SRB assay; details: MOLT-4, 24 h, read-out: Activity
[21] = test system: SR; assay: Cytotoxicity against human SR cells assessed as cell growth at 10 uM after 24 hrs by SRB assay; details: read-out: Activity
[22] = test system: EKVX; assay: Cytotoxicity against human EKVX cells assessed as cell growth at 10 uM after 24 hrs by SRB assay; details: read-out: Activity
[23] = Cytotoxicity against human HOP92 cells assessed as cell growth at 10 uM after 24 hrs by SRB assay; details: HOP-92, 24 h, read-out: Activity
[24] = test system: NCI-H23; assay: Cytotoxicity against human NCI-H23 cells assessed as cell growth at 10 uM after 24 hrs by SRB assay; details: NCI-H23, 24 h, read-out: Activity
[25] = Cytotoxicity against human BT549 cells assessed as cell growth at 10^-4 M after 24 hrs by SRB assay; details: BT-549, 24 h, read-out: Activity
[26] = Cytotoxicity against human HOP92 cells assessed as cell growth at 10^-8 M after 24 hrs by SRB assay; details: HOP-92, 24 h, read-out: Activity
[27] = test system: NCI-H522; assay: Cytotoxicity against human NCI-H522 cells assessed as cell growth at 10^-8 M after 24 hrs by SRB assay; details: NCI-H522, 24 h, read-out: Activity
[28] = Cytotoxicity against human SF295 cells assessed as cell growth at 10^-8 M after 24 hrs by SRB assay; details: SF-295, 24 h, read-out: Activity
[29] = Cytotoxicity against human UO31 cells assessed as growth inhibition at 10 uM after 24 hrs by SRB assay; details: UO-31, 24 h, read-out: GI
[30] = test system: SK-MEL-5; assay: Cytotoxicity against human SK-MEL-5 cells assessed as growth inhibition at 10 uM after 24 hrs by SRB assay; details: SK-MEL-5, 24 h, read-out: GI
[31] = test system: MDA-MB-231; assay: Cytotoxicity against human MDA-MB-231 cells assessed as growth inhibition at 10 uM after 24 hrs by SRB assay; details: MDA-MB-231, 24 h, read-out: GI
[32] = test system: T47D; assay: Cytotoxicity against human T47D cells assessed as growth inhibition at 10 uM after 24 hrs by SRB assay; details: read-out: GI
[33] = test system: K562; assay: Cytotoxicity against human K562 cells assessed as growth inhibition at 10 uM after 24 hrs by SRB assay; details: K562, 24 h, read-out: GI
[34] = test system: NCI-H226; assay: Cytotoxicity against human NCI-H226 cells assessed as growth inhibition at 10 uM after 24 hrs by SRB assay; details: NCI-H226, 24 h, read-out: GI
[35] = test system: A498; assay: Cytotoxicity against human A498 cells assessed as growth inhibition at 10 uM after 24 hrs by SRB assay; details: A498, 24 h, read-out: GI
[36] = Cytotoxicity against human HOP92 cells assessed as growth inhibition at 10 uM after 24 hrs by SRB assay; details: HOP-92, 24 h, read-out: GI
[37] = test system: NCI-H522; assay: Cytotoxicity against human NCI-H522 cells assessed as growth inhibition at 10 uM after 24 hrs by SRB assay; details: NCI-H522, 24 h, read-out: GI
[38] = Cytotoxicity against human RPMI8226 cells assessed as growth inhibition at 10 uM after 24 hrs by SRB assay; details: RPMI-8226, 24 h, read-out: GI

| Structure (SMILES) | growth at 10 µM [3] | growth at 10 µM [4] | growth at 10 µM [5] | growth at 10 µM [6] | growth at 10 µM [7] | growth at 10 µM [8] | growth at 10 µM [9] | growth at 10 µM [10] | growth at 10 µM [11] | growth at 10 µM [12] | growth at 10 µM [13] | growth at 10 µM [14] | growth at 10 µM [15] | growth at 10 µM [16] | growth at 10 µM [17] | growth at 10 µM [20] | growth at 10 µM [21] | growth at 10 µM [22] | growth at 10 µM [23] | growth at 10 µM [24] | also measured |
| --- | --- | --- | --- | --- | --- | --- | --- | --- | --- | --- | --- | --- | --- | --- | --- | --- | --- | --- | --- | --- | --- |
| O=C(Nc1cc(-c2cccnc2)nc(NCCCN2CCOCC2)n1)c1cc(Br)cc(C(F)(F)F)c1 | 56% | 6.87% | 75.4% | 66.5% | 72.1% | -16.8% | 81.3% | -49.8% | 3.78% | -27.1% | -6.13% | 75.6% | 42% | 54% | 52.8% | 45.1% | 4.25% | 77.4% | 34.6% | 80.9% | growth at 0.01 µM [1]: 93%; growth at 0.1 µM [2]: 96%; growth at 100 µM [18]: -88%; growth at 10 µM [19]: 48.5%; growth at 100 µM [25]: -86%; growth at 0.01 µM [26]: 80%; growth at 0.01 µM [27]: 86%; growth at 0.01 µM [28]: 97% |
| COc1cc(OC)cc(C(=O)Nc2cc(-c3cccnc3)nc(NCCCN3CCOCC3)n2)c1 | 95.3% | 90.6% | 99.9% | 91.1% | 109% | 88.1% | 84.1% | 101% | 68.3% | 88.6% | 97.6% | 103% | 53.6% | 69% | 83.2% | 82.3% | 57.9% | 103% | 67.7% | 91.7% | growth at 10 µM [19]: 86.5%; inhibition of growth at 10 µM [29]: 46.4%; inhibition of growth at 10 µM [30]: 31.7%; inhibition of growth at 10 µM [31]: 20.4%; inhibition of growth at 10 µM [32]: 27.2%; inhibition of growth at 10 µM [33]: 25.9%; inhibition of growth at 10 µM [34]: 32.3% |
| Cc1cc(Cl)ccc1C(=O)Nc1cc(-c2cccnc2)nc(NCCCN2CCOCC2)n1 | 110% | 104% | 99% | 91.4% | 91.3% | 109% | 106% | 95.3% | 92.7% | 95% | 102% | 100% | 89.2% | 96.9% | 88.5% | 98% | 98.7% | 99.8% | 95.9% | 96.7% | inhibition of growth at 10 µM [35]: 22.8%; inhibition of growth at 10 µM [34]: 22.4% |
| COCCCNc1nc(NC(=O)c2cc(OC)cc(OC)c2)cc(-c2cccnc2)n1 | 95.2% | 90.3% | 101% | 88.9% | 73.1% | 94.5% | 78.8% | 105% | 72.4% | 106% | 111% | 98.2% | 56.7% | 95.3% | 94.8% | 83.5% | 80.6% | 105% | 52.6% | 98.6% | growth at 10 µM [19]: 90.2%; inhibition of growth at 10 µM [36]: 47.4%; inhibition of growth at 10 µM [37]: 23.5%; inhibition of growth at 10 µM [29]: 43.3%; inhibition of growth at 10 µM [38]: 30.6%; inhibition of growth at 10 µM [30]: 27.6%; inhibition of growth at 10 µM [31]: 30.9%; inhibition of growth at 10 µM [32]: 36.2% |
| O=C(Nc1cc(-c2cccnc2)nc(NCCCN2CCOCC2)n1)c1ccc(F)cc1Cl | 94.8% | 94.5% | 90.3% | 101% | 112% | 96.5% | 91.3% | 108% | 88% | 95.4% | 105% | 102% | 77% | 105% | 93.5% | 98.4% | 92.8% | 102% | 91.2% | 90.5% | growth at 10 µM [19]: 83.6%; inhibition of growth at 10 µM [29]: 23% |
| COCCCNc1nc(NC(=O)c2ccc(Cl)cc2C)cc(-c2cccnc2)n1 | 102% | 109% | 109% | 89.9% | 87.6% | 107% | 107% | 104% | 84.1% | 85.7% | 109% | 99.1% | 95.9% | 103% | 111% | 93.9% | 110% | 108% | 67% | 107% | growth at 10 µM [19]: 106%; inhibition of growth at 10 µM [36]: 33%; inhibition of growth at 10 µM [37]: 21.4% |
| COCCCNc1nc(NC(=O)c2cc(Br)cc(C(F)(F)F)c2)cc(-c2cccnc2)n1 | 85.7% | 85.9% | 86.9% | 94% | 115% | 104% | 80.6% | 98.6% | 70.6% | 91% | 90.5% | 87.3% | 60.5% | 83% | 82.8% | 80.1% | 83.4% | 96% | 57.9% | 103% | growth at 10 µM [19]: 94.6%; inhibition of growth at 10 µM [36]: 42.1%; inhibition of growth at 10 µM [35]: 23.8%; inhibition of growth at 10 µM [29]: 39.5%; inhibition of growth at 10 µM [38]: 34.4%; inhibition of growth at 10 µM [30]: 29.5%; inhibition of growth at 10 µM [31]: 24.2%; inhibition of growth at 10 µM [32]: 35%; inhibition of growth at 10 µM [33]: 26.7% |
